Test: Solubility of each synthesized chemical compound in solvents at room temperature
Format: physicochemical
Conditions: room temperature (about 25° C.); for Solubility in MEK: methyl ethyl ketone (MEK); for Solubility in MIBK: methyl isobutyl ketone (MIBK)
Experimental: The solubility of each synthesized chemical compound was evaluated. Solubility was determined according to the following criteria by evaluating the solubility of each chemical compound in a plurality of solvents (cyclohexanone, toluene, methyl isobutyl ketone (MIBK) or methyl ethyl ketone (MEK)) at room temperature (about 25° C.).
A: When the solubility is 1% by mass or more.
B: When the solubility is 0.5% by mass or more and less than 1% by mass.
C: When the solubility is 0.2% by mass or more and less than 0.5% by mass.
D: When the solubility is less than 0.2% by mass.
The solubility evaluation results were summarized and described in Table 1.

Structure (SMILES) | Solubility in Cyclohexanone | Solubility in MEK | Solubility in MIBK | Solubility in Toluene
CCCCC(CC)C(=O)Nc1cc2c(cc1C1=C([O-])/C(=c3\cc4c(cc3NC(=O)C(CC)CCCC)=[N+](CCCC)C(C)C4(C)C)C1=O)C(C)(C)C(C)N2CCCC (centres unmarked) [Synthesis Example 2] | A (When the solubility is 1% by mass or more.) | A (When the solubility is 1% by mass or more.) | A (When the solubility is 1% by mass or more.) | A (When the solubility is 1% by mass or more.)
CCCCCCCCN1c2cc(NC(=O)C(F)(F)F)c(C3=C([O-])/C(=c4\cc5c(cc4NC(=O)C(F)(F)F)=[N+](CCCCCCCC)C(CC)C5(C)C)C3=O)cc2C(C)(C)C1CC (centres unmarked) [Synthesis Example 3] | A (When the solubility is 1% by mass or more.) | A (When the solubility is 1% by mass or more.) | A (When the solubility is 1% by mass or more.) | A (When the solubility is 1% by mass or more.)
CCCC(=O)Nc1cc2c(cc1C1=C([O-])/C(=c3\cc4c(cc3NC(=O)CCC)=[N+](CCOC)C(C)C4(C)C)C1=O)C(C)(C)C(C)N2CCOC (centres unmarked) [Synthesis Example 4] | A (When the solubility is 1% by mass or more.) | A (When the solubility is 1% by mass or more.) | A (When the solubility is 1% by mass or more.) | A (When the solubility is 1% by mass or more.)
CCCCCCN1c2cc(NC(=O)OCC)c(C3=C([O-])/C(=c4\cc5c(cc4NC(=O)OCC)=[N+](CCCCCC)C(C)C5(C)C)C3=O)cc2C(C)(C)C1C (centres unmarked) [Synthesis Example 5] | A (When the solubility is 1% by mass or more.) | A (When the solubility is 1% by mass or more.) | A (When the solubility is 1% by mass or more.) | A (When the solubility is 1% by mass or more.)
CC(=O)Nc1cc2c(cc1C1=C([O-])/C(=c3\cc4c(cc3NC(C)=O)=[N+](C)C(C)C4(C)C)C1=O)C(C)(C)C(C)N2C (centres unmarked) [Synthesis Example 6] | B (When the solubility is 0.5% by mass or more and less than 1% by mass.) | B (When the solubility is 0.5% by mass or more and less than 1% by mass.) | B (When the solubility is 0.5% by mass or more and less than 1% by mass.) | B (When the solubility is 0.5% by mass or more and less than 1% by mass.)
